Key:
[1] = molecular target: NANOLUC® Luciferase (Oplophorus gracilirostris, UniProt Q9GV45, A31E/A60N/A81I/F95D/I117V/K70R/L54V/L99Q/M102K/N193R/P142E/Q151K/Q38R/Q45L/V71I/Y165I); assay: Luminescence assay: substrate titration with purified NANOLUC Luciferase (RLU, signal half-life, Km); format: biochemical; conditions: 100 μM substrate; initial light output three minutes after substrate addition; relative to furimazine set to 1.0
Method: Each compound to be screened was dissolved in DMSO (5 mM) and then further diluted to 100 μM in NANO-GEO® Luciferase Assay Buffer. A two-fold dilution series was prepared for each substrate by serially diluting 500 μl of the substrate solution with 500 μl of NANO-GLO® Luciferase Assay Buffer. Each diluted substrate titration was then combined in equal volumes with purified NANOLUC® Luciferase diluted into CO2 independent media+10% FBS. Initial light output for each substrate was measured in a GLOMAX®-Multi+ luminometer three minutes after substrate addition and then at five minute intervals as a means to determine signal half-life. Signal half-life was calculated using GraphPad Prism One Phase Decay regression and Km and Vmax were calculated using GraphPad Prism using Michaelis-Menten regression.
The synthesized coelenterazine analogues (compounds of formula (I) and (II)) were evaluated for their suitability as luciferase substrates. NANOLUC® luciferase was employed for the screening because it is a small (19 kDa), stable, and particularly bright enzyme. […] RLU, half-life, and Km values are for furimazine is set to 1.0. […]

[2] = Solubility testing in formulation, UV-Vis of supernatant vs 0.2 micron filtrate; format: physicochemical; conditions: 8.7 mM in ethanol/propylene glycol/hydroxypropyl-β-cyclodextrin/PEG 400/water (10:10:10:35:35); UV spectra of supernatant vs filtrate
Method: This 5× stock solution was then added to a solution of hydroxypropyl-β-cyclodextrin/water/PEG400 to give a formulation mixture of 8.7 mM in ethanol/propylene glycol/hydroxypropyl-β-cyclodextrin/PEG 400/water (10:10:10:35:35). The mixture was vortexed and centrifuged. Supernatant was sampled and measured in a UV-Vis spectrometer. The mixture was filtered through a 0.2 micron syringe filter and the filtrate was measured and compared to the supernatant.
Shown in FIG. 1 are UV spectra of JRW-1040 in the formulation, comparing supernatant and filtrate. The two UV spectra are superimposed, showing JRW-1040 is fully soluble in the formulation. Shown in FIG. 2 is the same experiment with furimazine. […] This is an example showing improvements in solubility compared to furimazine.

NANOLUC® Luciferase, sequence (Q9GV45 28-196 with tags or gaps with the stated changes limits assumed): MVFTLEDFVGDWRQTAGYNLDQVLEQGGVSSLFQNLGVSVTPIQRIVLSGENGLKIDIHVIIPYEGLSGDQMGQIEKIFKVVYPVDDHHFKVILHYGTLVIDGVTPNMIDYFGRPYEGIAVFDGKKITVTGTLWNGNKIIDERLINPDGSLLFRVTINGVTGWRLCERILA

SMILES: O=c1c(Cc2cccs2)nc2c(Cc3ccccc3)[nH]c(-c3cccc(O)c3)cn1-2 [JRW-1040, 8-benzyl-6-(3-hydroxyphenyl)-2-(thiophen-2-ylmethyl)imidazo[1,2-a]pyrazin-3(7H)-one]
- RLU (@100 μM) [1]: 0.8
- Solubility in the formulation [2]: fully soluble

SMILES: O=c1c(Cc2ccco2)nc2c(Cc3ccccc3)[nH]c(-c3ccccc3)cn1-2 [Furimazine, 8-benzyl-2-(furan-2-ylmethyl)-6-phenylimidazo[1,2-a]pyrazin-3(7H)-one, reference compound]
- RLU (@100 μM) [1]: 1
- Solubility in the formulation [2]: not fully soluble

Source: patent US11691976B2, “Coelenterazine analogues” (PROMEGA CORPORATION, priority 2018, dated 2023)
